Values of other authors as cited in patent publication US20060233724A1, “Medicinal composition for peridontal pocket administration containing bisphosphonic acid derivative or its salt as the active ingredient” (Toray Industries, Inc., priority 2002, published 2006).
Like-named read-outs stand apart in the source and are kept apart here.

Columns and labels:
[1] = test system: destruction of alveolar bone; settings: simian periodontal disease model, oral administration
[2] = test system: destruction of alveolar bone; settings: canine periodontal disease model, oral administration
[3] = test system: experimental movement of molars; settings: rat
[4] = test system: involution of alveolar bone; settings: hamster periodontal disease models
[5] = test system: involution of alveolar bone, attachment level; settings: canine periodontal disease models, subcutaneous or oral administration

NCCCC(O)(P(=O)(O)O)P(=O)(O)O [alendronate, 4-amino-1-hydroxybutylidene-1,1-bisphosphonic acid]
destruction of alveolar bone [1]: inhibited destruction of alveolar bone | destruction of alveolar bone [2]: inhibited destruction of alveolar bone

NCCC(O)(P(=O)(O)O)P(=O)(O)O [pamidronate]
effect in experimental movement of molars ([3]; local submucosal administration to the palate): effective

O=P(O)(O)C(NC1CCCCCC1)P(=O)(O)O [Incadronate disodium, 1-(cycloheptylamino) methylidene-1,1-bisphosphonic acid]
involution of alveolar bone [4]: exhibits inhibiting action against involution of alveolar bone | attachment level [5]: action of improvement in attachment level | involution of alveolar bone [5]: action against involution of alveolar bone

O=P(O)(O)C(O)(Cc1cccnc1)P(=O)(O)O [risedronate, 1-hydroxy-2-(3-pyridyl)ethylidene-1,1-bisphosphonic acid]
effect in experimental movement of molars ([3]; local administration to the vicinity of first molar): effective
